# From US11167039B2, “MET antibody drug conjugates” (priority 2016, dated 2021)
# “Also recorded” adds a separate entry of the source.
# Key:
# AOSMC = assay: Cell killing, non-tumor AOSMC; type: cell-based, human; parameters: key: Sensitive; Resistant; settings: aortic smooth muscule cell
# Protocol: (§1) Briefly described, 2-3×10^3 cells/well in 100 μL of culture medium may be plated in 96 well plates and incubated overnight at 37° C., 5% CO2. The MET-ADCs, MET antibody(ies), control MMAE or control hIgG4 conjugated to MMAE with cysteine conjugation antibody(ies) may be diluted 1:3 in serum-free culture medium starting from 100 nM (final) in 50 μL as 3× concentrations to the HT-29 cells. At the end of an additional 5-6 days of cell growth at 37° C. in a humidified incubator with 5% CO2, the plates may be equilibrated to room temperature for 30 minutes and 100 μL/well of CellTiter-Glo® reagent (Promega Corp., Fitchburg, Wis.) may then be added to assess cell viability. Cell viability may be determined by measuring luminescence.
# (§2) Various tumor cell lines and normal human cells may be tested for MET-ADC induced cell killing activity essentially as described above in Example 10 as assessed for MET receptor density. MET cell surface density was determined by indirect immunofluorescence staining of cell surface antigens on cultured cells using QIFIKIT (Dako). […] Following a forty-five minute incubation, cells may be incubated for 1 hour on ice with FITC conjugated antibody diluted 1:50 in FACS buffer. Then cells may be washed and receptor numbers may be determined by indirect immunofluorescence staining of the QIFIKIT beads using a Becton Dickinson LSRII flow cytometer.
# Caco-2 = assay: Cell killing, Caco-2; type: cell-based, human; parameters: key: Sensitive; Resistant; settings: Caco-2, Colorectal Ca
# Protocol: as §1, §2
# [1] = tested on: HT-29 colon cancer tumor xenografts; assay: HT-29 mouse xenograft model; type: in vivo; settings: 1 mg/kg x3 Q7D
# Protocol: (§3) Female athymic nude mice age 6- to 7-weeks old are available commercially, including from Harlan Laboratories (Indianapolis, Ind.). The mice are allowed to acclimate for one week and fed ad libitum on a normal low fat (4.5%) diet, which may be continued for the duration of the study. Tumor cells may be purchased from ATCC and may be cultured in cell culture media such as RPMI 1640 (Life Technologies) with L-glutamine, 25 mM HEPES supplemented with 10% FBS and 1 mM Na Pyruvate. Cells may be detached, washed with serum free medium and then resuspended at a final concentration of 50×10^6 cells/mL in serum free RPMI 1640. Tumor cells, approximately 5×10^6, may be injected subcutaneously in the rear flank of subject mice in a 1:1 mixture of serum free growth medium and Matrigel (Becton Dickinson, Bedford, Mass.). Tumor and body weight measurements may be performed twice weekly. Prior to treatment, mice can be randomized based on tumor size using a randomization algorithm. Treatments may be started when the average tumor volume reaches 100 mm^3. […]
# MET-ADCs and control hIgG4-MMAE may be prepared in Phosphate Buffered Saline (PBS) prior to dose. Tumor size may be determined by caliper measurements. […] Tumor volume data can be transformed to a log scale to equalize variance across time and treatment groups. Log volume data can be analyzed with two-way repeated measures ANOVA by time and treatment using SAS PROC MIXED software (SAS Institutes Inc, Cary, N.C.). Treatment groups are compared with the specified control group at each time point.
# LS411N = assay: Cell killing, LS411N; type: cell-based, human; parameters: key to Sensitive/ Resistant: Sensitive; Resistant
# Protocol: as §1, §2
# [2] = tested on: pancreatic cancer PDX tumors; assay: Pancreatic cancer patient-derived xenograft (PDX) models; type: in vivo, mouse; settings: 5 mg/kg weekly, four doses
# Text: Body weight can also be assessed regularly.
# Pancreatic tumors are known in the art to overexpress MET and have more than 90% KRAS mutations (Yabar, C. S. and Winter, J. M., Gastroenterol Clin N Am 45: 429-445 (2016)). Pancreatic tumor samples from 40 human pancreatic cancer patients were individually implanted into different immunocompromised mice (i.e., each mouse carried one tumor derived from a patient's […] tumor) essentially as described above in this Example 12.
# SNU869 = assay: Cell killing, SNU869; type: cell-based, human; parameters: key: Sensitive; Resistant; settings: SNU869, Cholangiocarcinoma
# Protocol: as §1, §2
# Aspc-1 = assay: Cell killing, Aspc-1; type: cell-based, human; parameters: key: Sensitive; Resistant; settings: Aspc-1, PANC Ca
# Protocol: as §1, §2
# BxPC-3 = assay: Cell killing, BxPC-3; type: cell-based, human; parameters: key: Sensitive; Resistant; settings: BxPC-3, PANC Ca
# Protocol: as §1, §2
# H441 = assay: Cell killing, H441; type: cell-based, human; parameters: key: Sensitive; Resistant; settings: H441, NSCLC
# Protocol: as §1, §2
# Calu-6 xenograft = assay: Calu-6 non-small-cell-lung cancer xenograft model; type: in vivo, mouse
# Protocol: as §3
# MET-ADCs and control hIgG4-MMAE may be prepared in Phosphate Buffered Saline (PBS) prior to dose. Tumor size may be determined by caliper measurements. […] Log volume data can be analyzed with two-way repeated measures ANOVA by time and treatment using SAS PROC MIXED software (SAS Institutes Inc, Cary, N.C.). […]
# H1993 = assay: Cell killing, H1993; type: cell-based, human; parameters: key: Sensitive; Resistant; settings: H1993, NSCLC
# Protocol: as §1, §2
# RKO = RKO cell-killing assay; type: cell-based, human; settings: RKO (BRAF, PIK3) colon cancer cells
# Protocol: as §1, §2
# Panc-1 = assay: Cell killing, Panc-1; type: cell-based, human; parameters: key: Sensitive; Resistant; settings: Panc-1, PANC Ca
# Protocol: as §1, §2
# [3] = tested on: humen fresh activated PBMC; assay: Cell killing, fresh activated PBMC; type: cell-based, human; parameters: key: Sensitive; Resistant; settings: 3 donors
# Protocol: as §1, §2
# NCI-H292 = assay: Cell killing, NCI-H292; type: cell-based, human; parameters: key: Sensitive; Resistant; settings: NCI-H292, NSCLC
# Protocol: as §1, §2
# KP-4 = assay: Cell killing, KP-4; type: cell-based, human; parameters: key: Sensitive; Resistant; settings: KP-4, PANC Ca
# Protocol: as §1, §2
substance,measurement,setting,value
"MET-ADC#1: emibetuzumab lysine-conjugated via (2,5-dioxopyrrolidin-1-yl) 2-azidoacetate and Octyne-β-Glucn-MMAE",Sensitive/ Resistant,AOSMC,R
same,Sensitive/ Resistant,Caco-2,R
same,Observation (efficacy in HT-29 mouse xenograft),[1],Tumor regression^
same,Observation (efficacy in HT-29 mouse xenograft),[1]; listed as MET-ADC #1,far superior efficacy
same,cell killing activity in LS411N cells,"LS411N; LS411N (BRAF, PIK3) colon cancer cells",killed
same,Sensitive/ Resistant,"LS411N; LS411N, Colorectal Ca",S
same,DCR: disease control rate (CR+PR+SD over total 40),[2],60%
same,"PD: progressive disease (% Delta T/C>10%), number of PDX",[2]; total 40,16
same,"PR: partial response (% Regression<=−50% and tumor volume>14 mm^3), number of PDX",[2]; total 40,9
same,effect on volume of pancreatic cancer PDX tumors,[2]; vs control hIgG4-ADC,profoundly reduced the volume of the pancreatic cancer PDX tumors
same,Sensitive/ Resistant,SNU869,S
same,Sensitive/ Resistant,Aspc-1,S
same,Sensitive/ Resistant,BxPC-3,S
same,Sensitive/ Resistant,H441,S
same,antitumor efficacy,Calu-6 xenograft,initial tumor regression and stable disease status
same,Sensitive/ Resistant,H1993,S
same,cell killing activity in RKO cells,RKO,killed; also recorded: highly potent in killing RKO cells
same,Sensitive/ Resistant,Panc-1,R
same,Sensitive/ Resistant,[3],R
same,Sensitive/ Resistant,NCI-H292,S
same,Sensitive/ Resistant,KP-4,S
